In US4990497A, “Antifungal antibiotics” (priority 1989, dated 1991):
≈ marks a conversion by molar mass, not a printed value. Entries after “also recorded” stand apart in the source; their conditions may differ. Where two headings read alike, the source gives them in different places.

What was measured:
Aspergillus fumigatus [1] = assay: Antifungal MIC, serial agar dilution (Sabouraud dextrose agar), Aspergillus fumigatus; type: cell-based
Fusarium moniliforme = assay: Antifungal MIC, serial agar dilution (Sabouraud dextrose agar), Fusarium moniliforme; type: cell-based; conditions: Fusarium verticillioides
Candida albicans [2] = assay: Antifungal MIC, serial agar dilution (Sabouraud dextrose agar), Candida albicans; type: cell-based
Cryptococcus neoformans [3] = assay: Antifungal MIC, serial agar dilution (Sabouraud dextrose agar), Cryptococcus neoformans; type: cell-based
Candida albicans [4] = assay: Antifungal MIC, broth dilution (Sabouraud dextrose broth), Candida albicans
Method: (§1) The minimum inhibitory concentrations (MICs) against various fungi were determined by serial agar and broth dilution methods using Sabouraud dextrose agar and broth. The inoculum size of the test organism was adjusted to 10^5 CFUs/ml (BU-3608) or 10^5 -10^9 CFUs/ml (BU-3608 B and C) in the agar dilution method, and 10^4 -10^5 CFUs/ml (BU-3608) or 10^4 -10^6 CFUs/ml (BU-3608 B and C) in the broth dilution method.
(§2) ^(1) Determined after incubation for 72 hours at 28° C.
(§3) ^(2) Inoculum size: 10^5 CFU/ml for agar dilution and 10^4
-10^5 CFU/ml for broth dilution.
(§4) ^(3) Values in parenthesis indicate partial inhibition.
(§5) *Determined after incubation for 48-72 hours at 28° C.
(§6) **Inoculum size : 10^4 -10^6 CFU/ml for broth dilution and
10^5 -10^9 CFU/ml for agar dilution.
(§7) Values in parenthesis indicate partial inhibition.

Aspergillus fumigatus [5] = assay: Antifungal MIC, broth dilution (Sabouraud dextrose broth), Aspergillus fumigatus
Method: as §1, §2, §3
-10^5 CFU/ml for broth dilution.
as §4, §5, §6
10^5 -10^9 CFU/ml for agar dilution.
as §7

[6] = system: Trichophyton mentagrophytes; assay: Antifungal MIC, broth dilution (Sabouraud dextrose broth), Trichophyton mentagrophytes
Method: as §1, §2, §3
-10^5 CFU/ml for broth dilution.
as §4, §5, §6
10^5 -10^9 CFU/ml for agar dilution.
as §7

Sporothrix schenckii = assay: Antifungal MIC, serial agar dilution (Sabouraud dextrose agar), Sporothrix schenckii; type: cell-based
Piricularia oryzae = assay: microbe, parasite or virus in culture; type: cell-based
[7] = system: Trichophyton mentagrophytes; assay: Antifungal MIC, serial agar dilution (Sabouraud dextrose agar), Trichophyton mentagrophytes; type: cell-based
Cryptococcus neoformans [8] = assay: Antifungal MIC, broth dilution (Sabouraud dextrose broth), Cryptococcus neoformans
Method: as §1, §2, §3
-10^5 CFU/ml for broth dilution.
as §4, §5, §6
10^5 -10^9 CFU/ml for agar dilution.
as §7

influenza virus A = assay: Cytopathic effect (CPE) reduction assay, influenza virus A in MDCK cells; type: cell-based; conditions: unidentified influenza virus, 72 h, read-out: ID50 (CPE reduction)
Candida albicans A9540 = assay: In vivo antifungal activity, Candida albicans intravenous infection in mice; parameters: species or system mice (male ICR); conditions: for ED50: Candida albicans, read-out: PD50; for Number of survivors/tested: iv just after challenge
Method: The methyl and ethyl esters of BU-3608 were also evaluated against C. albicans A9540 infections in mice using the protocol described above. […] It is postulated that these esters are hydrolyzed in vivo to provide the active parent compound.

[9] = system: Cryptococcus neoformans IAM 4514; assay: In vivo antifungal activity, Cryptococcus neoformans intravenous infection in mice; conditions: IAM4514, in Mus musculus, im, 480 h, read-out: PD50
Method: In vivo activities of BU-3608, BU-3608 B, and BU-3608 C were tested against Candida albicans, Aspergillus fumigatus, and Cryptococcus neoformans infections in mice. Test organisms were cultured for 18 hours at 28° C. in YGP medium (yeast extract, glucose, peptone, K2 HPO4, MgSO4) and then suspended in saline. Male ICR mice weighing 20 to 24 g were infected intravenously with about 20 times (BU-3608) or 10 times (BU-3608 B and C) the median lethal dose of the test fungi. The antibiotics at various dose levels were administered to groups of 5 mice each either intravenously just after the fungal infection or intramuscularly twice a day on days 0 and 1. The dose that protects 50% of the animals from infection (PD50, mg/kg) was calculated from survival rates recorded on the 20th day after the fungal challenge.
**Compounds were administered im b.i.d. on days 0 and 1.

in vitro [10] = conditions: dog, mdck
in vitro [11] = conditions: monkey, vero cells
Mucor spinosus = assay: Antifungal MIC, serial agar dilution (Sabouraud dextrose agar), Mucor spinosus; conditions: IFO5317, 72 h
Method: as §1, §2

Aspergillus flavus = assay: Antifungal MIC, serial agar dilution (Sabouraud dextrose agar), Aspergillus flavus; conditions: 72 h
Method: as §1, §2

Blastomyces dermatitidis = assay: Antifungal MIC, serial agar dilution (Sabouraud dextrose agar), Blastomyces dermatitidis; conditions: 72 h
Method: as §1, §2

Petriellidium boydii = assay: Antifungal MIC, serial agar dilution (Sabouraud dextrose agar), Petriellidium boydii; conditions: Scedosporium boydii, IFO8073, 72 h
Method: as §1, §2

Acute toxicity in mice = type: in vivo
Method: The acute toxicity of BU-3608 was determined in mice after single intravenous and intramuscular administrations.

Solubility = type: physicochemical; conditions: free form
[12] = Aspergillus fumigatus IAM2034, 48-72 h at 28° C., 10^5-10^9 CFU/ml
[13] = Aspergillus fumigatus IAM2530, 48-72 h at 28° C., 10^5-10^9 CFU/ml
[14] = Fusarium moniliforme A2284, 48-72 h at 28° C., 10^5-10^9 CFU/ml
[15] = Candida albicans A9540, 48-72 h at 28° C., 10^5-10^9 CFU/ml
[16] = Candida albicans IAM4888, 48-72 h at 28° C., 10^5-10^9 CFU/ml
[17] = Cryptococcus neoformans D49, 48-72 h at 28° C., 10^5-10^9 CFU/ml
[18] = Cryptococcus neoformans IAM4514, 48-72 h at 28° C., 10^5-10^9 CFU/ml
[19] = read-out: MIC, partial inhibition (value in parenthesis)
[20] = IAM2034, read-out: MIC, partial inhibition (value in parenthesis)
[21] = Sporothrix schenckii IFO8158, 48-72 h at 28° C., 10^5-10^9 CFU/ml
[22] = Trichophyton mentagrophytes #4329, 48-72 h at 28° C., 10^5-10^9 CFU/ml
[23] = Trichophyton mentagrophytes D155, 48-72 h at 28° C., 10^5-10^9 CFU/ml
[24] = dose 3.1 mg/kg/inj., day 20, challenge 20x (BU-3608) or 10x (B, C) median lethal dose
[25] = dose 6.3 mg/kg/inj., day 20, challenge 20x (BU-3608) or 10x (B, C) median lethal dose
[26] = dose 12.5 mg/kg/inj., day 20, challenge 20x (BU-3608) or 10x (B, C) median lethal dose
[27] = dose 25 mg/kg/inj., day 20, challenge 20x (BU-3608) or 10x (B, C) median lethal dose
[28] = dose 50 mg/kg/inj., day 20, challenge 20x (BU-3608) or 10x (B, C) median lethal dose

Compound `COc1cc(O)c2c(c1)C(=O)c1c(cc3c(c1O)-c1c(cc(C)c(C(=O)N[C@H](C)C(=O)O)c1O)C(O[C@@H]1O[C@H](C)[C@H](N)[C@H](O[C@@H]4OC[C@@H](O)[C@H](O)[C@H]4O)[C@H]1O)C3O)C2=O` (stereo partly shown) has an MIC (Aspergillus fumigatus [1]; [12]) of 6.3 µg/mL (≈ 7.62 µM), an MIC (Aspergillus fumigatus [1]; [13]) of 3.1 µg/mL (≈ 3.75 µM) and an MIC (Fusarium moniliforme; [14]) of 6.3 µg/mL (≈ 7.62 µM). For the same compound, the MIC (Candida albicans [2]; [15]) was 6.3 µg/mL (≈ 7.62 µM), the MIC (Candida albicans [2]; [16]) was 6.3 µg/mL (≈ 7.62 µM) and the MIC (Cryptococcus neoformans [3]; [17]) was 0.8 µg/mL (≈ 0.968 µM). The MIC (Cryptococcus neoformans [3]; [18]) was 0.8 µg/mL (≈ 0.968 µM), the MIC (Candida albicans [4]) was 6.3 µg/mL (≈ 7.62 µM) and the MIC (Candida albicans [4]; [19]) was 3.1 µg/mL (≈ 3.75 µM). For the same compound, the MIC (Aspergillus fumigatus [5]; IAM2034) was 6.3 µg/mL (≈ 7.62 µM), the MIC (Aspergillus fumigatus [5]; [20]) was 3.1 µg/mL (≈ 3.75 µM) and the MIC [6] was 6.3 µg/mL (≈ 7.62 µM). For the same compound, the MIC [6, 19] was 1.3 µg/mL (≈ 1.57 µM), the MIC (Sporothrix schenckii; [21]) was 1.6 µg/mL (≈ 1.94 µM) and the MIC (Piricularia oryzae) was 3.1 µg/mL (≈ 3.75 µM). For the same compound, the MIC [7, 22] was 6.3 µg/mL (≈ 7.62 µM) and the MIC [7, 23] was 3.1 µg/mL (≈ 3.75 µM).
`CN[C@@H]1[C@H](O)[C@@H](O)[C@H](OC2c3cc(C)c(C(=O)N[C@H](C)C(=O)O)c(O)c3-c3c(cc4c(c3O)C(=O)c3cc(OC)cc(O)c3C4=O)C2O)O[C@@H]1C` (stereo partly shown) [BU-3608 B] gave an MIC (Aspergillus fumigatus [1]; [12]) of 6.3 µg/mL (≈ 8.89 µM), an MIC (Aspergillus fumigatus [1]; [13]) of 6.3 µg/mL (≈ 8.89 µM) and an MIC (Cryptococcus neoformans [8]; IAM4514) of 1.6 µg/mL (≈ 2.26 µM). For the same compound, the MIC (Fusarium moniliforme; [14]) was > 100 µg/mL, the MIC (Candida albicans [2]; [15]) was 3.1 µg/mL (≈ 4.37 µM) and the MIC (Candida albicans [2]; [16]) was 1.6 µg/mL (≈ 2.26 µM). For the same compound, the MIC (Cryptococcus neoformans [3]; [17]) was 0.8 µg/mL (≈ 1.13 µM), the MIC (Cryptococcus neoformans [3]; [18]) was 0.8 µg/mL (≈ 1.13 µM) and the IC50 (influenza virus A) was 8.4 µg/mL (≈ 11.9 µM). It also gave an MIC (Candida albicans [4]) of 3.1 µg/mL (≈ 4.37 µM), an MIC (Candida albicans [4]; [19]) of 3.1 µg/mL (≈ 4.37 µM) and an MIC (Aspergillus fumigatus [5]; IAM2034) of 50 µg/mL (≈ 70.6 µM). It also gave an MIC (Aspergillus fumigatus [5]; [20]) of 12.5 µg/mL (≈ 17.6 µM), an ED50 (Candida albicans A9540; A9540, im, 480 h) of 22 mg/kg and an ED50 (Candida albicans A9540; A9540, iv, 480 h) of 11 mg/kg. The Number of survivors/tested (Candida albicans A9540; [24]) was 0/5, the Number of survivors/tested (Candida albicans A9540; [25]) was 0/5 and the Number of survivors/tested (Candida albicans A9540; [26]) was 3/5. For the same compound, the Number of survivors/tested (Candida albicans A9540; [27]) was 3/5, the Number of survivors/tested (Candida albicans A9540; [28]) was 4/5 and the ED50 [9] was 11 mg/kg. The MIC [6] was 6.3 µg/mL (≈ 8.89 µM), the MIC [6, 19] was 3.1 µg/mL (≈ 4.37 µM) and the MIC (Sporothrix schenckii; [21]) was 3.1 µg/mL (≈ 4.37 µM). For the same compound, the MIC (Piricularia oryzae; 48-72 h at 28° C., read-out: MIC) was 6.3 µg/mL (≈ 8.89 µM), the CC50 at 72 h (in vitro [10]) was > 100 µg/mL and the MIC [7, 22] was 6.3 µg/mL (≈ 8.89 µM). The MIC [7, 23] was 6.3 µg/mL (≈ 8.89 µM).
`CN[C@@H]1[C@H](O[C@@H]2OC[C@@H](O)[C@H](O)[C@H]2O)[C@@H](O)[C@H](OC2c3cc(C)c(C(=O)N[C@H](C)C(=O)O)c(O)c3-c3c(cc4c(c3O)C(=O)c3cc(OC)cc(O)c3C4=O)C2O)O[C@@H]1C` (stereo partly shown) [BU-3608] gave an MIC (Aspergillus fumigatus [1]; Aspergillus fumigatus IAM2034, 72 h at 28° C., 10^5 CFU/ml) of 3.1 µg/mL (≈ 3.69 µM), an MIC (Aspergillus fumigatus [1]; Aspergillus fumigatus IAM2530, 72 h at 28° C., 10^5 CFU/ml) of 3.1 µg/mL (≈ 3.69 µM) and an MIC (Cryptococcus neoformans [8]; IAM4514, 72 h) of 0.4 µg/mL (≈ 0.476 µM). For the same compound, the MIC (Fusarium moniliforme; Fusarium moniliforme A2284, 72 h at 28° C., 10^5 CFU/ml) was 3.1 µg/mL (≈ 3.69 µM), the MIC (Candida albicans [2]; Candida albicans A9540, 72 h at 28° C., 10^5 CFU/ml) was 25 µg/mL (≈ 29.7 µM) and the MIC (Candida albicans [2]; Candida albicans IAM4888, 72 h at 28° C., 10^5 CFU/ml) was 25 µg/mL (≈ 29.7 µM). The CC50 at 72 h (in vitro [11]) was > 100 µg/mL, the MIC (Cryptococcus neoformans [3]; Cryptococcus neoformans D49, 72 h at 28° C., 10^5 CFU/ml) was 0.8 µg/mL (≈ 0.951 µM) and the MIC (Cryptococcus neoformans [3]; Cryptococcus neoformans IAM4514, 72 h at 28° C., 10^5 CFU/ml) was 0.8 µg/mL (≈ 0.951 µM). It also gave an IC50 (influenza virus A) of 4.4 µg/mL (≈ 5.23 µM), an MIC (Candida albicans [4]; 72 h) of 6.3 µg/mL (≈ 7.49 µM) and an MIC (Aspergillus fumigatus [5]; IAM2034, 72 h) of 12.5 µg/mL (≈ 14.9 µM). For the same compound, the MIC (Mucor spinosus) was 50 µg/mL (≈ 59.5 µM), the ED50 (Candida albicans A9540; A9540, 480 h, iv just after fungal challenge, day 20, challenge 20x (BU-3608) or 10x (B, C) median lethal dose) was 7.2 mg/kg and the Number of survivors/tested (Candida albicans A9540; dose 1.6 mg/kg/inj., day 20, challenge 20x median lethal dose) was 1/5. The Number of survivors/tested (Candida albicans A9540; [24]) was 2/5, the Number of survivors/tested (Candida albicans A9540; [25]) was 2/5 and the Number of survivors/tested (Candida albicans A9540; [26]) was 5/5. For the same compound, the Number of survivors/tested (Candida albicans A9540; [27]) was 5/5, the Number of survivors/tested (Candida albicans A9540; [28]) was 5/5 and the ED50 [9] was 3.5 mg/kg. For the same compound, the MIC (Aspergillus flavus) was 1.6 µg/mL (≈ 1.9 µM), the MIC ([6]; 72 h) was 25 µg/mL (≈ 29.7 µM) and the MIC ([6]; 72 h, read-out: MIC, partial inhibition (value in parenthesis)) was 6.3 µg/mL (≈ 7.49 µM). The MIC (Sporothrix schenckii; Sporothrix schenckii IFO8158, 72 h at 28° C., 10^5 CFU/ml) was 0.8 µg/mL (≈ 0.951 µM), the MIC (Piricularia oryzae; 72 h) was 3.1 µg/mL (≈ 3.69 µM) and the CC50 at 72 h (in vitro [10]) was > 100 µg/mL. For the same compound, the MIC (Blastomyces dermatitidis) was 6.3 µg/mL (≈ 7.49 µM), the MIC ([7]; 72 h, Trichophyton mentagrophytes #4329, 72 h at 28° C., 10^5 CFU/ml) was 25 µg/mL (≈ 29.7 µM) and the MIC ([7]; 72 h, Trichophyton mentagrophytes D155, 72 h at 28° C., 10^5 CFU/ml) was > 100 µg/mL. The MIC (Petriellidium boydii) was 100 µg/mL (≈ 119 µM), the sign of toxicity (Acute toxicity in mice; mice, single im dose of 400 mg/kg) was “no sign of toxicity” and the LD50 (Acute toxicity in mice; mouse, in vivo, iv) was 140 mg/kg. For the same compound, the Solubility (Solubility) was “Soluble in dimethyl sulfoxide, dimethyl formamide, acidic and alkaline water; also recorded: Slightly soluble in water, methanol, and ethanol; also recorded: Insoluble in ethyl acetate, chloroform, benzene, n-hexane, and petroleum ether”.
